Reference: patent publication US5183819A, “Use of fused bicyclic imides in the treatment of various CNS disorders” (American Home Products Corporation, priority 1992, dated 1993)

Experiments:
rats = conditions: intravenous or subcutaneous administration; cited from earlier work
[1] = system: isolation-induced aggressive mice; conditions: White et al. 1991; cited from earlier work
[2] = system: monkeys with a preference for alcohol; conditions: cited from earlier work
male Wistar rats = assay: Ethanol consumption, free choice between water and 5% aqueous ethanol; conditions: zalospirone 40 mg/kg, fluoxetine 10 mg/kg intraperitoneal; for ethanol consumed compared to control (Ringer's solution): treatment periods, g/kg or ml/rat basis
Method: A 12 hour light/dark cycle was programmed with darkness commencing at 1900 hr. […] The drinking tube positions were switched daily. The ethanol concentration was increased by 1% every 3 days until a concentration of 5% was reached. All rats were weighed daily and water or aqueous ethanol intake recorded.
After 3 days at the 5% ethanol concentration the rats that had consumed the 5% ethanol consistently began baseline and the inconsistent or poor drinkers were dropped from the study. A total of 30 rats began baseline studies. Baseline consisted of 8 days of free choice between water and 5% aqueous ethanol. During this time each rat received intraperitoneal injections of Ringer's solution (NaCl, 0.86 g; KCl, 0.03 g; and CaCl2.2H2 O, 0.033 g diluted to 100 ml with distilled water). Weight and water or 5% aqueous ethanol consumption were determined daily at 0800 hr and 1800 hr.

mice = conditions: White et al. 1991; cited from earlier work

Row | SMILES | paradoxical sleep (rats) | slow wave sleep (rats) | wakefulness (rats) | aggression in isolation-induced aggressive mice [1] | ethanol consumed compared to control (Ringer's solution) (male Wistar rats) | total fluid intake vs control animals (male Wistar rats) | water consumption, treated vs. control rats (male Wistar rats) | further results
1 | CCCN(CCC)C1CCc2cccc(O)c2C1 (centres unmarked) [8-OH-DPAT, 8-hydroxy-2-(di-n-propylamino)tetralin] | reduced | reduced | increased wakefulness |  |  |  |  | 
2 | O=C1CC2(CCCC2)CC(=O)N1CCCCN1CCN(c2ncccn2)CC1 [buspirone] | reduced | reduced | increased wakefulness | reduce aggression |  |  |  | preference for alcohol [2]: lower the preference for alcohol
3 | CNCCC(Oc1ccc(C(F)(F)F)cc1)c1ccccc1 (centres unmarked) [fluoxetine] |  |  |  |  | significantly less ethanol | less than with the control animals | no significant differences | food consumption compared to control rats (male Wistar rats): decreased food consumption; weight gain compared to control rats (male Wistar rats): significantly less weight gain
4 | CC1(C)CC(=O)N(CCCCN2CCN(c3ncccn3)CC2)C(=O)C1 [gepirone] |  |  |  | reduce aggression |  |  |  | 
5 | O=C1c2ccccc2S(=O)(=O)N1CCCCN1CCN(c2ncccn2)CC1 [ipsapirone] |  |  |  | reduce aggression |  |  |  | 
6 | O=C1C2C3C=CC(C4C=CC43)C2C(=O)N1CCCCN1CCN(c2ncccn2)CC1 (centres unmarked) [zalospirone, 3a,4,4a,6a,7a-hexahydro-2-[4-[4-(2-pyrimidinyl)-1-piperazinyl]butyl]-4,7-ethano-1H-cyclobut[f]isoindole-1,3(2H)-dione] |  |  |  | reduce aggression | significantly less ethanol | less than with the control animals | no significant differences | debilitating (sedating) effects at the antiaggressive dose (mice): without the debilitating (sedating) effects
